From US20260209214A1, “LSD1 MODULATORS” (RECURSION PHARMACEUTICALS, INC., priority 2022, published 2026)

Target: Recombinant human LSD1 (Homo sapiens, UniProt O60341)
Experiment: LSD1 inhibition assay (HTRF LSD1 Histone H3K4 mono-demethylation assay, me1->me0)
Type: biochemical
Conditions: 20 nM recombinant human LSD1, 95 nM H3K4(me1) biotinylated peptide, 15 min preincubation, 60 min at 25° C., read-out: LSD1 inhibition IC50 (nM range)
Method in brief: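 Recombinant human LSD1 (20 nM) pre-incubated 15 min with 10 semi-log compound doses, then 95 nM biotinylated H3K4me1 peptide for 60 min at 25 °C in pH 8.5 Tris/NaCl buffer with 10 μM FAD, 1 mM DTT. HTRF me0-antibody read after 90 min; IC50 from 4-parameter fit.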

SMILES	IC50 [nM]
N#Cc1ccc(-c2cc(CC3CNCCO3)ccc2N2CCC2)cc1F (stereo not drawn) [Example 44, 2′-(azetidin-1-yl)-3-fluoro-5′-[(morpholin-2-yl)methyl]-[1,1′-biphenyl]-4-carbonitrile]	100 to 1000
Cc1cnsc1-c1c(CC2CNCCO2)cccc1-c1ccc(C#N)c(F)c1 (stereo not drawn) [Example 45, 3-fluoro-2′-(4-methyl-1,2-thiazol-5-yl)-3′-[(morpholin-2-yl)methyl]-[1,1′-biphenyl]-4-carbonitrile]	100 to 1000
N#Cc1ccc(-c2cccc(CC3CNCCCO3)c2N2CCC2)cc1F (stereo not drawn) [Example 46, 2′-(azetidin-1-yl)-3-fluoro-3′-[(1,4-oxazepan-2-yl)methyl]-[1,1′-biphenyl]-4-carbonitrile]	25 to 100
N#Cc1ccc(-c2cccc(CC3CNCCO3)c2-c2cnco2)cc1F (stereo not drawn) [Example 47, 3-fluoro-3′-[(morpholin-2-yl)methyl]-2′-(1,3-oxazol-5-yl)-[1,1′-biphenyl]-4-carbonitrile]	25 to 100
N#Cc1ccc(-c2cccc(CC3CNCCO3)c2-c2cncs2)cc1F (stereo not drawn) [Example 48, 3-fluoro-3′-[(morpholin-2-yl)methyl]-2′-(1,3-thiazol-5-yl)-[1,1′-biphenyl]-4-carbonitrile]	10 to 25
N#Cc1ccc(-c2cc(F)cc(CC3CNCCO3)c2-c2cnco2)cc1F (stereo not drawn) [Example 49, 3,5′-difluoro-3′-[(morpholin-2-yl)methyl]-2′-(1,3-oxazol-5-yl)-[1,1′-biphenyl]-4-carbonitrile]	25 to 100
N#Cc1ccc(-c2cccc(CC3CNCCO3)c2N2CCC2)cc1 (stereo not drawn) [Example 50, 2′-(azetidin-1-yl)-3′-[(morpholin-2-yl)methyl]-[1,1′-biphenyl]-4-carbonitrile]	100 to 1000
Cc1ncoc1-c1c(CC2CNCCO2)cccc1-c1ccc(C#N)c(F)c1 (stereo not drawn) [Example 51, 3-fluoro-2′-(4-methyl-1,3-oxazol-5-yl)-3′-[(morpholin-2-yl)methyl]-[1,1′-biphenyl]-4-carbonitrile]	25 to 100
COC1CCN(c2ccc(CC3CNCCO3)cc2-c2ccc(C#N)c(F)c2)CC1 (stereo not drawn) [Example 52, 3-fluoro-2′-(4-methoxypiperidin-1-yl)-5′-[(morpholin-2-yl)methyl]-[1,1′-biphenyl]-4-carbonitrile]	100 to 1000
Cc1cc(CC2CNCCO2)c(-c2ccns2)c(-c2ccc(C#N)cc2)c1 (stereo not drawn) [Example 53, 5′-methyl-3′-[(morpholin-2-yl)methyl]-2′-(1,2-thiazol-5-yl)-[1,1′-biphenyl]-4-carbonitrile]	10 to 25
COCC1CN(c2ccc(CC3CNCCO3)cc2-c2ccc(C#N)c(F)c2)C1 (stereo not drawn) [Example 55, 3-fluoro-2′-[3-(methoxymethyl)azetidin-1-yl]-5′-[(morpholin-2-yl)methyl]-[1,1′-biphenyl]-4-carbonitrile]	100 to 1000
Cn1ncc2cc(-c3ccc(CC4CNCCO4)cc3-c3ccc(C#N)c(F)c3)cnc21 (stereo not drawn) [Example 56, 3-fluoro-2′-{1-methyl-1H-pyrazolo[3,4-b]pyridin-5-yl}-5′-[(morpholin-2-yl)methyl]-[1,1′-biphenyl]-4-carbonitrile]	25 to 100
N#Cc1ccc(-c2cc(C3CC3)cc(CC3CNCCO3)c2-c2cncs2)cc1F (stereo not drawn) [Example 57, 5′-cyclopropyl-3-fluoro-3′-[(morpholin-2-yl)methyl]-2′-(1,3-thiazol-5-yl)-[1,1′-biphenyl]-4-carbonitrile]	10 to 25
N#Cc1ccc(-c2cc(CC3CNCCO3)ccc2N2CCC(c3ncccn3)CC2)cc1F (stereo not drawn) [Example 59, 3-fluoro-5′-[(morpholin-2-yl)methyl]-2′-[4-(pyrimidin-2-yl)piperidin-1-yl]-[1,1′-biphenyl]-4-carbonitrile]	100 to 1000
N#Cc1ccc(-c2cc(CC3CNCCO3)ccc2N2CCC(O)(C3CC3)CC2)cc1F (stereo not drawn) [Example 60, 2′-(4-cyclopropyl-4-hydroxypiperidin-1-yl)-3-fluoro-5′-[(morpholin-2-yl)methyl]-[1,1′-biphenyl]-4-carbonitrile]	25 to 100
